ChEMBL document CHEMBL5346927, “Discovery of a novel 1H-pyrazole- [3,4-b] pyridine-based lysine demethylase 5B inhibitor with potential anti-prostate cancer activity that perturbs the phosphoinositide 3-kinase/AKT pathway” (Eur J Med Chem, 2023)
Activity calls are given as the source filed them. The rule behind the calls is not given here.

How the values were obtained:
[1] = Toxicity in BALB/C nude mouse xenografted with human PC-3 cells assessed as reduction in prostate gland cells at 25 mg/kg, IG administered for 25 days by H&E staining based analysis; format: organism-based; settings: in vivo, po, 600 h, time 25 day
[2] = Toxicity in BALB/C nude mouse xenografted with human PC-3 cells assessed as indistinct prostate tube wall at 25 mg/kg, IG administered for 25 days by H&E staining based analysis; format: organism-based; settings: in vivo, po, 600 h, time 25 day
[3] = Toxicity in BALB/C nude mouse xenografted with human PC-3 cells assessed as heart damage at 25 mg/kg, IG administered for 25 days by H&E staining based analysis; format: organism-based; settings: in vivo, po, 600 h, time 25 day
PC-3 [4] = assay: Antitumor activity against human PC-3 cells xenografted in BALB/C nude mice assessed as decrease in tumor volume at 25 to 50 mg/kg, IG administered for 25 days; format: functional, organism-based; settings: dose 25-50 mg/kg, time 25.0 day
[5] = Toxicity in BALB/C nude mouse xenografted with human PC-3 cells assessed as liver damage at 25 mg/kg, IG administered for 25 days by H&E staining based analysis; format: organism-based; settings: in vivo, po, 600 h, time 25 day
[6] = Toxicity in BALB/C nude mouse xenografted with human PC-3 cells assessed as decrease in cell density at 25 mg/kg, IG administered for 25 days by H&E staining based analysis; format: organism-based; settings: in vivo, po, 600 h, time 25 day
[7] = Toxicity in BALB/C nude mouse xenografted with human PC-3 cells assessed as spleen damage at 25 mg/kg, IG administered for 25 days by H&E staining based analysis; format: organism-based; settings: in vivo, po, 600 h, time 25 day
PC-3 [8] = assay: Antitumor activity against human PC-3 cells xenografted in BALB/C nude mice assessed as decrease in tumor weight at 25 mg/kg, IG administered for 25 days; format: functional, organism-based; settings: time 25.0 day
[9] = Toxicity in BALB/C nude mouse xenografted with human PC-3 cells assessed as irregular fissures at 25 mg/kg, IG administered for 25 days by H&E staining based analysis; format: organism-based; settings: in vivo, po, 600 h, time 25 day
[10] = Toxicity in BALB/C nude mouse xenografted with human PC-3 cells assessed as effect on body weight at 25 mg/kg, IG administered for 25 days; format: organism-based; settings: in vivo, po, 600 h, time 25 day
[11] = biological target: T1, Protein deacetylase HDAC6 (Homo sapiens) (UniProt Q9UBN7); assay: Inhibition of HDAC6 (unknown origin) at 10 uM relative to control
T1 sequence (whole entry): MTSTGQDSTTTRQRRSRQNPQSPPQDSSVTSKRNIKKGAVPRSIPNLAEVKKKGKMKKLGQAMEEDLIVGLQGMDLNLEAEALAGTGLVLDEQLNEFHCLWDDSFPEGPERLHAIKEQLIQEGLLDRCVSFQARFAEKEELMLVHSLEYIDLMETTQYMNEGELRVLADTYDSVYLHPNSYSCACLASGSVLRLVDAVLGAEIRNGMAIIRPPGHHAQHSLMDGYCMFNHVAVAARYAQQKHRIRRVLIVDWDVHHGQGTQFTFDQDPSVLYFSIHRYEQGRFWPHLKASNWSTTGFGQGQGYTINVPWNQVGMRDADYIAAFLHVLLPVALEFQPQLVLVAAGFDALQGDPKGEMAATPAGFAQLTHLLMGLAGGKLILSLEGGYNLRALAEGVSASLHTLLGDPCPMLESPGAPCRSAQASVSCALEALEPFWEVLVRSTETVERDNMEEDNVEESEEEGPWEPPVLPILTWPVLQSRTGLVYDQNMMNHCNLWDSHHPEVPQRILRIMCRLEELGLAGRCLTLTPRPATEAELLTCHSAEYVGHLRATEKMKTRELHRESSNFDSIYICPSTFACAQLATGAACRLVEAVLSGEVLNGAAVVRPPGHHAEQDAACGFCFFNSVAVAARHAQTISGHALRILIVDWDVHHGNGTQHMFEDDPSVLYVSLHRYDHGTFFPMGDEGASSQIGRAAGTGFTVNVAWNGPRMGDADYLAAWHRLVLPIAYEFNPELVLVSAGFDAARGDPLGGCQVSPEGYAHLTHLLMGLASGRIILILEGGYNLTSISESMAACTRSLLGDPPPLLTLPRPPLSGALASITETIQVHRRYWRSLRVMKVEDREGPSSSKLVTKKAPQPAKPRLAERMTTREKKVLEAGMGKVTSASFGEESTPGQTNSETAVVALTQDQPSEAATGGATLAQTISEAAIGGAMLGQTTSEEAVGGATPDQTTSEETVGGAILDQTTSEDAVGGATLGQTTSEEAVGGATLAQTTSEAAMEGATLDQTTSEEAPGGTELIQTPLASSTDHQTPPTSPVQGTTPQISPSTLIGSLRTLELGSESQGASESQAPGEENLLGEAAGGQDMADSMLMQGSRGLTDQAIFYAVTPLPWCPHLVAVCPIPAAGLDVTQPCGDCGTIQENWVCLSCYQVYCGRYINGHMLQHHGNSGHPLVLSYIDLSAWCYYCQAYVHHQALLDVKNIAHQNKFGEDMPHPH

[12] = biological target: Bromodomain-containing protein 4 (Homo sapiens) (UniProt O60885); assay: Inhibition of BRD4 (unknown origin) at 10 uM relative to control
[13] = biological target: Ubiquitin carboxyl-terminal hydrolase 7 (Homo sapiens) (UniProt Q93009); assay: Inhibition of USP7 (unknown origin) at 10 uM relative to control
Sequence of Ubiquitin carboxyl-terminal hydrolase 7 (Homo sapiens) (Q93009 whole entry, looked up): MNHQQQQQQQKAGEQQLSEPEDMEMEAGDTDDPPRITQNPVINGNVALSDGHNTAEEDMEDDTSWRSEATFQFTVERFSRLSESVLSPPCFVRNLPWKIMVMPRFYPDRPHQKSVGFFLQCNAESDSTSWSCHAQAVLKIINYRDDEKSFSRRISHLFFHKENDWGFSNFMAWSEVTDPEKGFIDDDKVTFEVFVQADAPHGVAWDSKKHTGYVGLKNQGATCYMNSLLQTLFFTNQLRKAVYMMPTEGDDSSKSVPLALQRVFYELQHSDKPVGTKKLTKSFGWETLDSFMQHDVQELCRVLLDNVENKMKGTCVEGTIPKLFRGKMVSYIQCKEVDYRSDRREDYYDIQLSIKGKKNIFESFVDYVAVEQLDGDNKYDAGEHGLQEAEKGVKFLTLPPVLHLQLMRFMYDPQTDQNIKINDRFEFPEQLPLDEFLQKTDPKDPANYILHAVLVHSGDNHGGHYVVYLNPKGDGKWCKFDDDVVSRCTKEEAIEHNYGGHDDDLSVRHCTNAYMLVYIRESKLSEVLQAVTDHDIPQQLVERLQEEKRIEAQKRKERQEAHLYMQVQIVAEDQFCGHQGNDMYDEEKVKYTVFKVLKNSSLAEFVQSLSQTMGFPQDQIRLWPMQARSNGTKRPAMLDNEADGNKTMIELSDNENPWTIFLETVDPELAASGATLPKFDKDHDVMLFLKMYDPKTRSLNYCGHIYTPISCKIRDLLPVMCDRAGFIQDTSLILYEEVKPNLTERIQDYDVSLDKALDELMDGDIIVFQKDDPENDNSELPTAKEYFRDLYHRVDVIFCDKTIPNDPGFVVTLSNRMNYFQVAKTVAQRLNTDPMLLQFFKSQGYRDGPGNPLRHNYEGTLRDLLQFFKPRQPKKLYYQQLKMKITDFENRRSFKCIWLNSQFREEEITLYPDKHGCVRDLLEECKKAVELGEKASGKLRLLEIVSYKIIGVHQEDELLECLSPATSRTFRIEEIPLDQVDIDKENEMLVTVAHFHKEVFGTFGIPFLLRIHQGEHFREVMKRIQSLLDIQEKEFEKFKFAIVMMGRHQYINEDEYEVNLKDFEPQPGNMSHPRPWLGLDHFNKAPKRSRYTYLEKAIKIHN

[14] = biological target: T2, Lysine-specific demethylase 5B (Homo sapiens, UniProt Q9UGL1); assay: Inhibition of KDM5B (unknown origin) at 10 uM relative to control
T2 sequence (Q9UGL1 whole entry): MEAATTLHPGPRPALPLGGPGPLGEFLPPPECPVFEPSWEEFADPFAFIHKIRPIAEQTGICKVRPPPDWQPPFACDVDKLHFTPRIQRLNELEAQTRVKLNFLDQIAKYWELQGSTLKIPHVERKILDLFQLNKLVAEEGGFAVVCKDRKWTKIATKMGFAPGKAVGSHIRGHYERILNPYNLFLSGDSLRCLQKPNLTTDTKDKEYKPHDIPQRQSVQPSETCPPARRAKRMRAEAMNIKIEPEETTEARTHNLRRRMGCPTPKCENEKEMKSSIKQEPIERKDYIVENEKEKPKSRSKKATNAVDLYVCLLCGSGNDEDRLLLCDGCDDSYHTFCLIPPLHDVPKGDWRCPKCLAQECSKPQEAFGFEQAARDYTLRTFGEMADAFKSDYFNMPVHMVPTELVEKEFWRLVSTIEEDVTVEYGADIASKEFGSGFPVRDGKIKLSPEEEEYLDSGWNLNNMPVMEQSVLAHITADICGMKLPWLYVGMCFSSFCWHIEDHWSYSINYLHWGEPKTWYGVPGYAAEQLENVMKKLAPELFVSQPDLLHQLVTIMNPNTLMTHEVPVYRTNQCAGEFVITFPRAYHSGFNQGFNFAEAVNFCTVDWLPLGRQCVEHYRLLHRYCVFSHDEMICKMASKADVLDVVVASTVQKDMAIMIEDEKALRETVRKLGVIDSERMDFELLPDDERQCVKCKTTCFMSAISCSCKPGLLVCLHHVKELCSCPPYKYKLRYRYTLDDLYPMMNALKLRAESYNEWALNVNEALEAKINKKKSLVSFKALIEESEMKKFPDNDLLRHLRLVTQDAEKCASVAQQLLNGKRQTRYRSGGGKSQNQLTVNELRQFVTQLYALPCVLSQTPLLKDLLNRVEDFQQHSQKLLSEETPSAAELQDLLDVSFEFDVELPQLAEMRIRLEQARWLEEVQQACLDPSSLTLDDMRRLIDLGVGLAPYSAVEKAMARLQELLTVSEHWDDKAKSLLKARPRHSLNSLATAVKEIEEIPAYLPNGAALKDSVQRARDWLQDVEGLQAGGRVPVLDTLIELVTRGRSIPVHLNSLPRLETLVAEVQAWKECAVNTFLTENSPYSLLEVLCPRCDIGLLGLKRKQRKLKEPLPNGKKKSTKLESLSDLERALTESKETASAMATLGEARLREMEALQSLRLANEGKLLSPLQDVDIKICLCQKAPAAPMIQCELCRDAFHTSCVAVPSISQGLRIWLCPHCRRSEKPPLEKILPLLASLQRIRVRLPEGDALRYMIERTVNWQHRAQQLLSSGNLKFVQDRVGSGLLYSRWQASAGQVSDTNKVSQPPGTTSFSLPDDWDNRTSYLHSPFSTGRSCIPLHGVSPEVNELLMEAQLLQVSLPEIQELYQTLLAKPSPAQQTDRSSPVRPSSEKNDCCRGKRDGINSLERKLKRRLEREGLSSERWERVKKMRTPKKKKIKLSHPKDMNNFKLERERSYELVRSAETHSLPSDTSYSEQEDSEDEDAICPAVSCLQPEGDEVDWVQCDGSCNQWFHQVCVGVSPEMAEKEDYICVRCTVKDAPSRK

[15] = biological target: Lysine-specific histone demethylase 1A (Homo sapiens) (UniProt O60341); assay: Inhibition of LSD1 (unknown origin) at 10 uM relative to control
[16] = biological target: S-phase kinase-associated protein 2 (Homo sapiens) (UniProt Q13309); assay: Inhibition of SKP2 (unknown origin) at 10 uM relative to control
Sequence of S-phase kinase-associated protein 2 (Homo sapiens) (Q13309 whole entry): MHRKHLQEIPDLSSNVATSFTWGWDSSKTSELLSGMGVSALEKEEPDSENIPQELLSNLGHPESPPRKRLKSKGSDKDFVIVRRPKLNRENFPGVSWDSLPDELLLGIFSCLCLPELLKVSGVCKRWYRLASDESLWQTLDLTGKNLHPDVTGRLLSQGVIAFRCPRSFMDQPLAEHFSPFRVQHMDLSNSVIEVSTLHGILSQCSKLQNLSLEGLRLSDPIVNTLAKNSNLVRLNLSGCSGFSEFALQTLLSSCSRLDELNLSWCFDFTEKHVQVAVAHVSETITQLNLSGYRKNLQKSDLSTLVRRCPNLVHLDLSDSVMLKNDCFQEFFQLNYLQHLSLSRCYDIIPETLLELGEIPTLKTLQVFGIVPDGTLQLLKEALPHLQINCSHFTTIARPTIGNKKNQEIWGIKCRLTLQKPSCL

HepG2 = assay: Antitumor activity against human HepG2 cells assessed as inhibition of cell proliferation incubated for 72 hrs by MTT assay; format: functional, cell-based; settings: HepG2, 72 h
LNCaP = assay: Antiproliferative activity against human LNCaP cells assessed as inhibition of cell proliferation incubated for 72 hrs by MTT assay; format: functional, cell-based
PC-3 [17] = assay: Inhibition of PI3K/AKT pathway in human PC-3 cells assessed as decrease in AKT phosphorylation at Thr308 residue at 20 uM by Western blot analysis; format: cell-based
[18] = biological target: T2, Lysine-specific demethylase 5B; assay: Inhibition of KDM5B (unknown origin)
MCF7 = assay: Antitumor activity against human MCF7 cells assessed as inhibition of cell proliferation incubated for 72 hrs by MTT assay; format: functional, cell-based; settings: MCF7, 72 h
PC-3 [19] = assay: Antitumor activity against human PC-3 cells assessed as inhibition of cell proliferation incubated for 72 hrs by MTT assay; format: functional, cell-based; settings: PC-3, 72 h
PC-3 [20] = assay: Inhibition of PI3K/AKT pathway in human PC-3 cells assessed as decrease in P110alpha level at 20 uM by Western blot analysis; format: cell-based
PC-3 [21] = assay: Inhibition of PI3K/AKT pathway in human PC-3 cells assessed as decrease in AKT phosphorylation at Ser473 residue at 20 uM by Western blot analysis; format: cell-based
DU-145 = assay: Antiproliferative activity against human DU-145 cells assessed as inhibition of cell proliferation incubated for 72 hrs by MTT assay; format: functional, cell-based; settings: DU-145, 72 h
PC-3 [22] = assay: Inhibition of PI3K/AKT pathway in human PC-3 cells assessed as decrease in P85 level at 20 uM by Western blot analysis; format: cell-based
MGC-803 = assay: Antitumor activity against human MGC-803 cells assessed as inhibition of cell proliferation incubated for 72 hrs by MTT assay; format: functional, cell-based; settings: MGC-803, 72 h

With `COc1cccc2c1C(=O)c1c(O)c3c(c(O)c1C2=O)C[C@@](O)(C(=O)CO)C[C@@H]3O[C@H]1C[C@H](N)[C@H](O)[C@H](C)O1` [DOXORUBICIN] the Activity [1] was “Toxic”, the Activity [2] was “Toxic” and the Activity [3] was “Toxic”. The Activity (PC-3 [4]) was “Active”, the Activity [5] was “Toxic” and the Activity [6] was “Toxic”. The Activity [7] was “Toxic”, the Activity (PC-3 [8]) was “Active” and the Activity [9] was “Toxic”. The Activity [10] was “Toxic”.

Work on `CC(C)n1ncc2c(C(=O)NCc3cn(Cc4ccccc4)nn3)cccc21` yielded an inhibition [11] of 27%, an inhibition [12] of 9% and an inhibition [13] of 16%. It also gave an inhibition [14] of 56%, an inhibition [15] of 31% and an inhibition [16] of 11%.

For `CC(C)c1c(-c2ccccc2)[nH]c2c(C#N)cnn2c1=O`, the IC50 (HepG2) was 42.6 µM, the IC50 (LNCaP) was 29.6 µM and the inhibition (PC-3 [17]) was “Active”. For the same molecule, the IC50 [18] was 0.011 µM, the IC50 (MCF7) was 35.4 µM and the IC50 (PC-3 [19]) was 26.7 µM. The inhibition (PC-3 [20]) was “Active”, the inhibition (PC-3 [21]) was “Active” and the IC50 (DU-145) was 35.9 µM. For the same molecule, the inhibition (PC-3 [22]) was “Active” and the IC50 (MGC-803) was 33.7 µM.
